From US6469137B1, “Myelopeptides and their therapeutic use” (Primamedic, Ltd, priority 1997, dated 2002) come the findings set out here.

Where a SMILES comes first, the peptide text is derived from it.

The subject of one series is MT4 cells. The series is classed as cell-based, human. How it is done: The HIV-infected MT4 cells were incubated in RPMI-1640 culture medium supplemented with 10% FBS and 2 mM L-glutamine. The MT4 cells (0.5 million cells per 1 ml of culture medium) were placed in wells of a 24-well plastic culture plates and kept for 7 days of 37° C. in an atmosphere of 4.5% CO2. Each of the MPs examined was added into respective wells of the culture plates, to final concentrations of 0.1, 0.5, 1, 5, 10, 50 and 100 μg per 1 ml of culture were used. Azidothymidine (Sigma Chemical Co.) at its final concentration of 0.1 μg/ml, was used as a positive anti-viral control during each of the experiments.
Azidothymidine (0.1 μg/ml) caused 100% inhibition of HIV replication in the infected MT-4 cells.

For a further series, the system named is serum interferon. Nature of the series: Serum interferon increase in mice (titration on EMV-infected L929 cells). The series is classed as in vivo. Particulars: dose and time not given.
Series [1] has as its system encephalomyocarditis virus (EMV). Nature of the series: Anti-viral activity in vitro, L929 cells infected by EMV. The series is classed as cell-based, mouse. The following applies: pre-incubation 24 or 48 h, then 100 TCID50 of EMV. The procedure: The L929 mouse fibroblastoid cell line was maintained in vitro as described above. MP-3, MP-4, MP-5 and MP-6 were added into triplicate cultures using the following final concentrations: 500, 250, 125, 63, 31, 16, 8, 4, 2, 1, 0.5, 0.25 μg per 1 ml of culture. Ridostin was used as a control interferon-inducer.
24 or 48 h post-injection, the L929 cell cultures were infected by 100 TCID50 of EMV. During the next 24 h the viral infection caused dramatic damages in L929 cells. […] MP-5, by contrast, when added in a final concentration of 16 μg/ml or more, completely abrogated destructive influence of the virus on L929 cells. So did MP-6, when added at a concentration of 4 μg/ml or more. […] MP-4 also defended the L929 cells from the virus-induced damage, after 48 h exposure of the cells in the presence of 32 μg/ml (or higher concentration) of the preparation before their challenge by the virus.

`CC(C)C[C@H](N)C(=O)N[C@H](C(=O)N[C@@H](CS)C(=O)N[C@@H](Cc1ccc(O)cc1)C(=O)N1CCC[C@H]1C(=O)N[C@@H](CCC(N)=O)C(=O)O)C(C)C` [MP-3, LVCYPQ] (H-LVCYPQ-OH; N-terminus and C-terminus assumed): the “Damage of MT4 cells (cell viability)” value in the series on MT4 cells is on record as “no visible damage”. As to `CC[C@H](C)[C@H](NC(=O)[C@H](CCCNC(=N)N)NC(=O)[C@@H]1CCCN1C(=O)[C@H](CCCNC(=N)N)NC(=O)[C@@H](N)Cc1ccccc1)C(=O)N[C@@H](CCSC)C(=O)N[C@H](C(=O)N1CCC[C@H]1C(=O)O)[C@@H](C)O` [MP-4, FRPRIMTP] (H-FRPRIMTP-OH; N-terminus and C-terminus assumed), the “Damage of MT4 cells (cell viability)” value in the series with MT4 cells is recorded as “no visible damage”. On the same count and under the same terms, the entry for `CC(C)[C@H](N)C(=O)N[C@H](C(=O)N[C@@H](Cc1ccc(O)cc1)C(=O)N1CCC[C@H]1C(=O)N[C@@H](CC(=O)O)C(=O)O)C(C)C` [MP-5, VVYPD] (H-VVYPD-OH; N-terminus and C-terminus assumed) is “no visible damage”; for `CC(C)[C@H](N)C(=O)N[C@@H](CC(=O)O)C(=O)N1CCC[C@H]1C(=O)N1CCC[C@H]1C(=O)O` [MP-6, VDPP] (H-VDPP-OH; N-terminus and C-terminus assumed) it is “no visible damage”. As for Ridostin, the “Serum interferon titer, level characteristic of positive control” value in the series on serum interferon was 320 units/ml. For the same compound, in series [1], the “Concentration that completely abrogated destructive influence of the virus on L929 cells” value is ≥ 0.5 µg/mL.
